Assay: Release study of two dyes from electrospun fiber mat immersed in PBS at 37° C., UV absorbance
Assay type: physicochemical
Experimental: 6.36 mg rhodamine B was dissolved in 20 mL PBS. 200 μL solution of this solution was taken and 1.8 mL PBS was added to achieve a 10× dilution. The solution was serially diluted from 100× to 1000×, and the corresponding absorbance of each was measured. Rhodamine B concentration vs absorbance was plotted.
The above solution was diluted to 30, 40, 50, 60, 70, 80, 90, 100, 150, 200× concentrations. UV absorbance was measured for each solution.
In a 20 mL scintillation vial, 2 cm×2 cm fiber mat of the polyester was immersed in 20 ml PBS. The vial was stored in 37° C. incubator. 2 mL PBS was removed at each time point and replaced with 2 mL fresh PBS, and UV absorbance was measured. These measurements were performed in triplicates. Dye release was calculated according to the UV absorbance standard curve.

CCN(CC)c1ccc2c(-c3ccccc3C(=O)O)c3ccc(=[N+](CC)CC)cc-3oc2c1.[Cl-] [rhodamine B, Rhodamine B]
cumulative release of dye from fiber mat (after day 55, fiber mat of p(mPhe-Keto-BocGlu) mixed with rhodamine B and coumarin dye): 17.0±3.2%
cumulative release of dye from fiber mat (after day 90, fiber mat of p(mPhe-Keto-BocGlu) mixed with rhodamine B and coumarin dye): 30.4±6.5%
cumulative release of dye from fiber mat (days 0-7, fiber mat of p(mPhe-Keto-BocGlu) mixed with rhodamine B and coumarin dye): 7.4±1.6%
